# In ChEMBL document CHEMBL3885881, “DrugMatrix”:
# Organism: Rattus norvegicus
# Experiment: DrugMatrix - Regimen: Daily Repeat
# Type: toxicity, organism-based, Sprague-Dawley
# Set-up: regimen Daily Repeat, gender Male, age 6-8 weeks
# Details: in vivo, po, route oral GAVAGE, vehicle .5 % CMC; for ALBUMIN / ALKALINE PHOSPHATASE / ASPARTATE AMINOTRANSFERASE / BLOOD UREA NITROGEN / CARBON DIOXIDE / CHLORIDE / CHOLESTEROL / CREATINE PHOSPHOKINASE / CREATININE / GLUCOSE / LACTATE DEHYDROGENASE / PHOSPHORUS / POTASSIUM / SODIUM / TOTAL BILIRUBIN / TOTAL PROTEIN / URIC ACID / ALANINE AMINOTRANSFERASE: tissue Plasma; for ABSOLUTE BASOPHIL / ABSOLUTE EOSINOPHIL / ABSOLUTE LYMPHOCYTE / ABSOLUTE SEGMENTED NEUTROPHIL / BASOPHIL / EOSINOPHIL / ERYTHROCYTE COUNT / HEMATOCRIT / LEUKOCYTE COUNT / LYMPHOCYTE / MEAN CORPUSCULAR HEMOGLOBIN / MEAN CORPUSCULAR HEMOGLOBIN CONCENTRATION / MEAN CORPUSCULAR VOLUME / MONOCYTE / NEUTROPHIL / NUCLEATED RED BLOOD CELLS / PLATELET COUNT: tissue Blood
# [1] = 3 mg/kg, 120 h, dose level Low, time 5 day
# [2] = 250 mg/kg, 72 h, dose level M1, time 3 day
# [3] = 250 mg/kg, 120 h, dose level M1, time 5 day
# [4] = 500 mg/kg, 72 h, dose level High, time 3 day
compound,measurement,setting,value
CCN(CC)CCOc1ccc(/C(=C(/Cl)c2ccccc2)c2ccccc2)cc1 [ENCLOMIPHENE],ALBUMIN,[1],4.23 G/DL
same,ALKALINE PHOSPHATASE,[1],396 u/L
same,ASPARTATE AMINOTRANSFERASE,[1],74.33 u/L
same,BLOOD UREA NITROGEN,[1],15 mg/dL
same,CARBON DIOXIDE,[1],26 mmol/L
same,CHLORIDE,[1],102.33 MEQ/L
same,CHOLESTEROL,[1],19 mg/dL
same,CREATINE PHOSPHOKINASE,[1],301 u/L
same,CREATININE,[1],0.17 mg/dL
same,GLUCOSE,[1],167.33 mg/dL
same,LACTATE DEHYDROGENASE,[1],159.33 u/L
same,PHOSPHORUS,[1],11.77 mg/dL
same,POTASSIUM,[1],6.49 MEQ/L
same,SODIUM,[1],144.63 MEQ/L
same,TOTAL BILIRUBIN,[1],0.13 mg/dL
same,TOTAL PROTEIN,[1],6.17 G/DL
same,URIC ACID,[1],1.3 mg/dL
same,ABSOLUTE BASOPHIL,[2],0 CELLS/uL
same,ABSOLUTE EOSINOPHIL,[2],257 CELLS/uL
same,ABSOLUTE LYMPHOCYTE,[2],8100 CELLS/uL
same,ABSOLUTE SEGMENTED NEUTROPHIL,[2],6509.67 CELLS/uL
same,BASOPHIL,[2],0%
same,EOSINOPHIL,[2],1.67%
same,ERYTHROCYTE COUNT,[2],6.81 x10E6/uL
same,HEMATOCRIT,[2],42.67%
same,LEUKOCYTE COUNT,[2],14.87 x10E3/uL
same,LYMPHOCYTE,[2],63%
same,MEAN CORPUSCULAR HEMOGLOBIN,[2],22.93 pg
same,MEAN CORPUSCULAR HEMOGLOBIN CONCENTRATION,[2],36.33 G/DL
same,MEAN CORPUSCULAR VOLUME,[2],63.07 fL
same,MONOCYTE,[2],0%
same,NEUTROPHIL,[2],35.33%
same,NUCLEATED RED BLOOD CELLS,[2],0 /100WBC
same,PLATELET COUNT,[2],1358.67 x10E3/uL
same,ALANINE AMINOTRANSFERASE,[2],103.33 u/L
same,ALBUMIN,[2],3.87 G/DL
same,ALKALINE PHOSPHATASE,[2],393.33 u/L
same,ASPARTATE AMINOTRANSFERASE,[2],112.33 u/L
same,BLOOD UREA NITROGEN,[2],17 mg/dL
same,CARBON DIOXIDE,[2],21.67 mmol/L
same,CHLORIDE,[2],104.67 MEQ/L
same,CHOLESTEROL,[2],20.67 mg/dL
same,CREATINE PHOSPHOKINASE,[2],596.67 u/L
same,CREATININE,[2],0.17 mg/dL
same,GLUCOSE,[2],156.67 mg/dL
same,LACTATE DEHYDROGENASE,[2],305 u/L
same,PHOSPHORUS,[2],12.63 mg/dL
same,POTASSIUM,[2],6.02 MEQ/L
same,SODIUM,[2],145 MEQ/L
same,TOTAL BILIRUBIN,[2],0.0667 mg/dL
same,TOTAL PROTEIN,[2],5.43 G/DL
same,URIC ACID,[2],2.13 mg/dL
same,ABSOLUTE BASOPHIL,[3],0 CELLS/uL
same,ABSOLUTE EOSINOPHIL,[3],97.33 CELLS/uL
same,ABSOLUTE LYMPHOCYTE,[3],15789.33 CELLS/uL
same,ABSOLUTE SEGMENTED NEUTROPHIL,[3],1980 CELLS/uL
same,BASOPHIL,[3],0%
same,EOSINOPHIL,[3],0.67%
same,ERYTHROCYTE COUNT,[3],7.29 x10E6/uL
same,HEMATOCRIT,[3],44.07%
same,LEUKOCYTE COUNT,[3],17.87 x10E3/uL
same,LYMPHOCYTE,[3],88.33%
same,MEAN CORPUSCULAR HEMOGLOBIN,[3],22.33 pg
same,MEAN CORPUSCULAR HEMOGLOBIN CONCENTRATION,[3],36.8 G/DL
same,MEAN CORPUSCULAR VOLUME,[3],60.6 fL
same,MONOCYTE,[3],0%
same,NEUTROPHIL,[3],11%
same,NUCLEATED RED BLOOD CELLS,[3],0 /100WBC
same,PLATELET COUNT,[3],1119 x10E3/uL
same,ALANINE AMINOTRANSFERASE,[3],135 u/L
same,ALBUMIN,[3],3.8 G/DL
same,ALKALINE PHOSPHATASE,[3],350 u/L
same,ASPARTATE AMINOTRANSFERASE,[3],128 u/L
same,BLOOD UREA NITROGEN,[3],17.67 mg/dL
same,CARBON DIOXIDE,[3],25.33 mmol/L
same,CHLORIDE,[3],104.33 MEQ/L
same,CHOLESTEROL,[3],27.67 mg/dL
same,CREATINE PHOSPHOKINASE,[3],820.67 u/L
same,CREATININE,[3],0.15 mg/dL
same,GLUCOSE,[3],142.67 mg/dL
same,LACTATE DEHYDROGENASE,[3],135 u/L
same,PHOSPHORUS,[3],11.73 mg/dL
same,POTASSIUM,[3],6.75 MEQ/L
same,SODIUM,[3],147.17 MEQ/L
same,TOTAL BILIRUBIN,[3],0.1 mg/dL
same,TOTAL PROTEIN,[3],5.37 G/DL
same,URIC ACID,[3],1.8 mg/dL
same,ABSOLUTE BASOPHIL,[4],0 CELLS/uL
same,ABSOLUTE EOSINOPHIL,[4],68.67 CELLS/uL
same,ABSOLUTE LYMPHOCYTE,[4],11139 CELLS/uL
same,ABSOLUTE SEGMENTED NEUTROPHIL,[4],1343.67 CELLS/uL
same,BASOPHIL,[4],0%
same,EOSINOPHIL,[4],0.67%
same,ERYTHROCYTE COUNT,[4],6.43 x10E6/uL
same,HEMATOCRIT,[4],40.43%
same,LEUKOCYTE COUNT,[4],12.83 x10E3/uL
same,LYMPHOCYTE,[4],86.67%
same,MEAN CORPUSCULAR HEMOGLOBIN,[4],24.7 pg
same,MEAN CORPUSCULAR HEMOGLOBIN CONCENTRATION,[4],39.23 G/DL
same,MEAN CORPUSCULAR VOLUME,[4],62.87 fL
same,MONOCYTE,[4],2%
same,NEUTROPHIL,[4],10.67%
same,NUCLEATED RED BLOOD CELLS,[4],0 /100WBC
same,PLATELET COUNT,[4],1271 x10E3/uL
same,ALANINE AMINOTRANSFERASE,[4],113.33 u/L
same,ALBUMIN,[4],3.63 G/DL
same,ALKALINE PHOSPHATASE,[4],288.33 u/L
same,ASPARTATE AMINOTRANSFERASE,[4],124 u/L
same,BLOOD UREA NITROGEN,[4],11 mg/dL
same,CARBON DIOXIDE,[4],32 mmol/L
same,CHLORIDE,[4],105.33 MEQ/L
same,CHOLESTEROL,[4],25.33 mg/dL
same,CREATINE PHOSPHOKINASE,[4],861 u/L
same,CREATININE,[4],0.1 mg/dL
same,GLUCOSE,[4],141 mg/dL
same,LACTATE DEHYDROGENASE,[4],193.67 u/L
same,PHOSPHORUS,[4],12.93 mg/dL
same,POTASSIUM,[4],5.84 MEQ/L
same,SODIUM,[4],146.17 MEQ/L
same,TOTAL BILIRUBIN,[4],0.1 mg/dL
same,TOTAL PROTEIN,[4],5.03 G/DL
same,URIC ACID,[4],1.43 mg/dL
